{
  "source": "paper PMC8559303",
  "about": "(European Journal of Medicinal Chemistry, 2021)",
  "tested_on": "SARS-CoV-2",
  "type": "cell-based",
  "conditions": "200 μM, Vero E6, CCK8",
  "data": [
    {"smiles": "CCN1Cc2cc(OC)c(OC)cc2-c2cccc(NC(=O)C(F)(F)F)c21", "note": "[Compound 16, N-(5-Ethyl-8,9-dimethoxy-5,6-dihydrophenanthridin-4-yl)-2,2,2-trifluoroacetamide]", "values": [
      {"measurement": "protection on cells from death caused by viral infection", "value": "~100", "unit": "%"}
    ]},
    {"smiles": "CCN1Cc2cc(OC)c(OC)cc2-c2cccc(N)c21", "note": "[Compound 12, 5-Ethyl-8,9-dimethoxy-5,6-dihydrophenanthridin-4-amine]", "values": [
      {"measurement": "protection on cells from death caused by viral infection", "value": "~100", "unit": "%"}
    ]}
  ]
}
